Consider seven compounds from patent US7138361B2, “Herbicidal heterocycles” (E. I. du Pont de Nemours and Company, priority 2000, dated 2006).

Structures are written as SMILES.

Type in all cases: in vivo
The subject of assay [1] is cocklebur (Xanthium strumarium). Nature of the assay: Test C postemergence. In outline:
(§1)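 Test chemicals, formulated in a non-phytotoxic solvent mixture with surfactant, were applied preemergence to planted seeds or postemergence to plants 2 to 18 cm tall (1- to 4-leaf stage). After 12 to 14 days in a greenhouse, injury was visually rated against untreated controls on a 0–100 scale.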

For assay [2], the system named is corn (Zea mays). Briefly: Test C postemergence. The procedure, abridged:
as §1

Assay [3] concerns crabgrass (Digitaria sanguinalis). Nature of the assay: Test C postemergence. The procedure, abridged: as §1
The test system of assay [4] is barnyardgrass (Echinochloa crus-galli). Briefly: Test C flooded paddy test. Particulars: for Barnyardgrass plant response rating: Flooded Paddy, scale 0 to 100, 0 no effect, 100 complete control; for Plant response rating, Barnyardgrass: scale 0 to 100 (0 no effect, 100 complete control). In outline:
(§2)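 Flooded paddy, 2-leaf stage at treatment. Readout: visual % control vs untreated, 0–100, at 12–14 d in greenhouse.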

Assay [5] has as its system duck salad (Heteranthera limosa). Nature of the assay: Test C flooded paddy test. Particulars: for Ducksalad plant response rating: Flooded Paddy, scale 0 to 100, 0 no effect, 100 complete control; for Plant response rating, Ducksalad: scale 0 to 100 (0 no effect, 100 complete control). In outline:
as §2

Assay [6] deals with rice (Oryza saliva). Nature of the assay: Test C flooded paddy test. The note with it: for Rice plant response rating: Flooded Paddy, scale 0 to 100, 0 no effect, 100 complete control; for Plant response rating, Rice: scale 0 to 100 (0 no effect, 100 complete control). The procedure, abridged: as §2
In assay [7] the test system is smallflower flatsedge (Cyperus difformis). Briefly: Test C flooded paddy test. Particulars: for Flatsedge plant response rating: Flooded Paddy, scale 0 to 100, 0 no effect, 100 complete control; for Plant response rating, Flatsedge: scale 0 to 100 (0 no effect, 100 complete control). In outline:
as §2

The subject of assay [8] is Nightshade. Nature of the assay: Test C preemergence. The note with it: Rate 500 g/ha, visual evaluation after 12 to 14 days.
For assay [9], the system named is Sunflower. Briefly: Test C preemergence. Particulars: Rate 250 g/ha, scale 0 to 100, 0 no effect, 100 complete control.
Assay [10] relates to Sunflower. Briefly: Test C preemergence. The note with it: Rate 62 g/ha, scale 0 to 100.
[11] abbreviates: Rate 250 g/ha, scale 0 to 100 (0 no effect, 100 complete control).
Where [12] appears, read: Rate 500 g/ha, scale 0 to 100 (0 no effect, 100 complete control).
Setting [13] is: flooded paddy test, Rate 62 g/ha.
Where [14] appears, read: flooded paddy test, Rate 125 g/ha.
Where [15] appears, read: flooded paddy test, Rate 62 g/ha, visually evaluated after 12 to 14 days, 0 = no effect, 100 = complete control.

Regarding `CCCOc1cc(N2CCC(n3ccc(C(C)(C)C)n3)C2=O)ccc1C` (stereo not shown) [Compound 107], the “Plant response rating, Cocklebur” value in assay [1] (Rate 62 g/ha, scale 0 to 100) was 0; in [1] (setting [11]), 30; in [1] (setting [12]) it was 80. For the same compound, the “Plant response rating, Corn” value was 0 in [2] (Rate 62 g/ha, scale 0 to 100); 0 in assay [2] (setting [11]); 0 in assay [2] (setting [12]); 0 in assay [2] (scale 0 to 100). In addition, the “Plant response rating, Crabgrass” value in [3] (Rate 62 g/ha, scale 0 to 100) turned out to be 0; in assay [3] (setting [11]) it was 0; in assay [3] (setting [12]) it was 20. Also, the “Barnyardgrass plant response rating” value in assay [4] (Rate 250 g/ha) came out at 70; in [4] (Rate 500 g/ha), 80. Further, the “Plant response rating, Barnyardgrass” value in assay [4] (setting [13]) worked out at 20; in assay [4] (setting [14]), 30. The “Ducksalad plant response rating” value was found to be 0 in [5] (Rate 250 g/ha) and 70 in [5] (Rate 500 g/ha). The “Plant response rating, Ducksalad” value in assay [5] (setting [13]) and in [5] (setting [14]) was 0 throughout. The results for the “Rice plant response rating” value in assay [6] (Rate 250 g/ha) and in assay [6] (Rate 500 g/ha) were 0 and 20, respectively. Besides, the “Plant response rating, Rice” value in assay [6] (setting [13]) and in assay [6] (setting [14]) was 0 each time. Moreover, the “Flatsedge plant response rating” value in [7] (Rate 250 g/ha) is recorded as 60; in [7] (Rate 500 g/ha), 100. The results for the “Plant response rating, Flatsedge” value in [7] (setting [13]) and in assay [7] (setting [14]) were 30 and 50, respectively. In addition, the “Plant response rating (0 to 100), Nightshade” value in assay [8] amounted to 90. Moreover, the “Plant response rating, Sunflower” value in assay [9] turned out to be 40; in assay [10], 0.

Consider `CCC(CC)c1ccn(C2CCN(c3cccc(OC)c3)C2=O)n1` (stereo not shown) [Compound 96], for which the “Barnyardgrass plant response rating” value in assay [4] (Rate 250 g/ha) and in assay [4] (Rate 500 g/ha) was 100 throughout. The “Plant response rating, Barnyardgrass” value in assay [4] (setting [13]) and in assay [4] (setting [14]) was 80 throughout. Further, the “Ducksalad plant response rating” value in [5] (Rate 250 g/ha) and in assay [5] (Rate 500 g/ha) was 100 each time. For the same compound, the figures for the “Plant response rating, Ducksalad” value in [5] (setting [13]) and in [5] (setting [14]) were 80 and 90, respectively. Besides, the “Rice plant response rating” value was 50 in [6] (Rate 250 g/ha) and 60 in assay [6] (Rate 500 g/ha). For the same compound, the “Plant response rating, Rice” value in assay [6] (setting [13]) and in [6] (setting [14]) was 0 throughout. Also, the “Flatsedge plant response rating” value in assay [7] (Rate 250 g/ha) and in [7] (Rate 500 g/ha) was 100 each time. Further, the “Plant response rating, Flatsedge” value in assay [7] (setting [13]) and in assay [7] (setting [14]) was 90 in each case. Further, in assay [8], the “Plant response rating (0 to 100), Nightshade” value stood at 80. Further, the entries for the “Plant response rating, Sunflower” value in [9] and in assay [10] were 50 and 0, respectively.

`CCC(CC)c1ccn(C2CCN(c3cccc(OC(C)C)c3)C2=O)n1` (stereo not shown) [Compound 84]: the “Barnyardgrass plant response rating” value in assay [4] (Rate 250 g/ha) and in assay [4] (Rate 500 g/ha) was 100 throughout. Moreover, the “Plant response rating, Barnyardgrass” value in assay [4] (setting [13]) is reported as 80. Moreover, the “Ducksalad plant response rating” value in assay [5] (Rate 250 g/ha) and in assay [5] (Rate 500 g/ha) was 100 throughout. In addition, the “Plant response rating, Ducksalad” value in assay [5] (setting [13]) and in assay [5] (setting [14]) was 90 in each case. In addition, the “Rice plant response rating” value in [6] (Rate 250 g/ha) turned out to be 30; in assay [6] (Rate 500 g/ha), 90. Further, the “Plant response rating, Rice” value in assay [6] (setting [13]) and in assay [6] (setting [14]) was 0 in each case. The “Flatsedge plant response rating” value in assay [7] (Rate 250 g/ha) and in [7] (Rate 500 g/ha) was 100 in each case. The “Plant response rating, Flatsedge” value in [7] (setting [13]) and in assay [7] (setting [14]) was 90 each time. For the same compound, the “Plant response rating (0 to 100), Nightshade” value in [8] was 100. The “Plant response rating, Sunflower” value in assay [9] is 30; in assay [10] it was 0.

For `CCCC(C)c1ccn(C2CCN(c3cccc(OCC)c3)C2=O)n1` (stereo not shown) [Compound 129], the “Barnyardgrass plant response rating” value in [4] (Rate 250 g/ha) is on record as 80; in [4] (Rate 500 g/ha), 100. The “Plant response rating, Barnyardgrass” value in assay [4] (setting [14]) is listed as 50. The “Plant response rating (scale 0 to 100), Barnyardgrass” value in assay [4] (setting [15]) is reported as 30. The “Ducksalad plant response rating” value in [5] (Rate 250 g/ha) and in assay [5] (Rate 500 g/ha) was 90 throughout. The “Plant response rating, Ducksalad” value in assay [5] (setting [14]) amounted to 30. Further, in assay [5] (setting [15]), the “Plant response rating (scale 0 to 100), Ducksalad” value amounted to 20. Besides, the “Rice plant response rating” value in assay [6] (Rate 250 g/ha) amounted to 0; in assay [6] (Rate 500 g/ha), 35. The “Plant response rating, Rice” value in assay [6] (setting [14]) is on record as 0. For the same compound, the “Plant response rating (scale 0 to 100), Rice” value in assay [6] (setting [15]) turned out to be 0. The “Flatsedge plant response rating” value in [7] (Rate 250 g/ha) and in [7] (Rate 500 g/ha) was 90 in each case. For the same compound, the “Plant response rating, Flatsedge” value in assay [7] (setting [14]) turned out to be 80. For the same compound, in assay [7] (setting [15]), the “Plant response rating (scale 0 to 100), Flatsedge” value is listed as 70. In assay [8], the “Plant response rating (0 to 100), Nightshade” value came to 60. Further, the figures for the “Plant response rating, Sunflower” value in assay [9] and in assay [10] were 10 and 0, respectively.

In the case of `CCOc1cccc(N2CCC(n3ccc(C(C)C)n3)C2=O)c1` (stereo not shown) [Compound 128], the “Barnyardgrass plant response rating” value in assay [4] (Rate 250 g/ha) and in assay [4] (Rate 500 g/ha) was 100 throughout. In addition, the “Plant response rating, Barnyardgrass” value in [4] (setting [13]) is listed as 40; in assay [4] (setting [14]) it was 100. In addition, the “Ducksalad plant response rating” value in assay [5] (Rate 250 g/ha) and in [5] (Rate 500 g/ha) was 100 throughout. Besides, the “Plant response rating, Ducksalad” value in [5] (setting [13]) amounted to 60; in assay [5] (setting [14]), 70. For the same compound, the “Rice plant response rating” value in assay [6] (Rate 250 g/ha) is recorded as 30; in [6] (Rate 500 g/ha), 70. Moreover, the “Plant response rating, Rice” value worked out at 0 in assay [6] (setting [13]) and 30 in assay [6] (setting [14]). Besides, the “Flatsedge plant response rating” value in assay [7] (Rate 250 g/ha) and in [7] (Rate 500 g/ha) was 100 each time. In addition, the “Plant response rating, Flatsedge” value in [7] (setting [13]) and in assay [7] (setting [14]) was 90 in each case. For the same compound, the “Plant response rating (0 to 100), Nightshade” value in assay [8] turned out to be 100. For the same compound, the “Plant response rating, Sunflower” value in assay [9] was 100; in assay [10] it was 20.

As to `CCCC(C)c1ccn(C2OCN(c3cccc(C(F)(F)F)c3)C2=O)n1` (stereo not shown) [Compound 89], the “Barnyardgrass plant response rating” value in assay [4] (Rate 250 g/ha) and in [4] (Rate 500 g/ha) was 100 in each case. In addition, the “Plant response rating, Barnyardgrass” value in assay [4] (setting [13]) amounted to 20; in assay [4] (setting [14]), 70. In addition, the “Ducksalad plant response rating” value was 40 in [5] (Rate 250 g/ha) and 90 in assay [5] (Rate 500 g/ha). Moreover, the “Plant response rating, Ducksalad” value in assay [5] (setting [13]) and in [5] (setting [14]) was 0 in each case. In addition, the figures for the “Rice plant response rating” value in [6] (Rate 250 g/ha) and in [6] (Rate 500 g/ha) were 20 and 40, respectively. Further, the “Plant response rating, Rice” value in [6] (setting [13]) and in [6] (setting [14]) was 0 throughout. The “Flatsedge plant response rating” value was found to be 90 in [7] (Rate 250 g/ha) and 100 in [7] (Rate 500 g/ha). Also, the “Plant response rating, Flatsedge” value in assay [7] (setting [13]) is listed as 80; in [7] (setting [14]), 90. For the same compound, the “Plant response rating (0 to 100), Nightshade” value in assay [8] worked out at 30. In addition, the “Plant response rating, Sunflower” value in [9] and in assay [10] was 0 throughout.

For the compound `CCC(C)Oc1cccc(N2CCC(n3ccc(C(C)(C)C)n3)C2=O)c1` (stereo not shown) [Compound 127], the “Barnyardgrass plant response rating” value in assay [4] (Rate 250 g/ha) was found to be 20; in assay [4] (Rate 500 g/ha) it was 50. The “Plant response rating, Barnyardgrass” value in assay [4] (setting [13]) and in assay [4] (setting [14]) was 0 throughout. The “Ducksalad plant response rating” value in [5] (Rate 250 g/ha) is 50; in assay [5] (Rate 500 g/ha), 80. Besides, the “Plant response rating, Ducksalad” value in [5] (setting [13]) and in assay [5] (setting [14]) was 0 each time. The “Rice plant response rating” value in [6] (Rate 250 g/ha) and in assay [6] (Rate 500 g/ha) was 0 each time. Also, the “Plant response rating, Rice” value in [6] (setting [13]) and in assay [6] (setting [14]) was 0 in each case. The “Flatsedge plant response rating” value worked out at 80 in [7] (Rate 250 g/ha) and 90 in assay [7] (Rate 500 g/ha). The “Plant response rating, Flatsedge” value in [7] (setting [13]) and in assay [7] (setting [14]) was 0 throughout. In addition, in [8], the “Plant response rating (0 to 100), Nightshade” value stood at 100. In addition, the “Plant response rating, Sunflower” value in assay [9] and in assay [10] was 0 throughout.
